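Step 1: Grow cells in 96-well plates. Step 2: Expose to compound for 48 hours at 5 concentrations. Step 3: Interpolate endpoints linearly; if unreached, use highest concentration. GI50 is the concentration that inhibits growth by half. TGI: concentration producing complete growth inhibition.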
How the values were obtained:
Assay in all cases: DTP human tumour cell line panel, 48 h
DMS 114 small cell lung = system: DMS 114 small cell lung
DMS 273 small cell lung = system: DMS 273 small cell lung
HCT-116 colon = system: HCT-116 colon
KM20L2 colon = system: KM20L2 colon
M19-MEL melanoma = system: M19-MEL melanoma
MOLT-4 leukemia = system: MOLT-4 leukemia
SK-MEL-5 melanoma = system: SK-MEL-5 melanoma
XF 498 CNS = system: XF 498 CNS
MCF7 breast = system: MCF7 breast
MDA-MB-231 breast = system: MDA-MB-231 breast

`CN(C(=O)C12C3C4C1C1C2C3C41C(=O)C(C)(C)C)C(C)(C)C` (centres undefined) showed a TGI (DMS 114 small cell lung) of over 100 µM, a TGI (DMS 273 small cell lung) of over 100 µM and a TGI (HCT-116 colon) of over 100 µM. The TGI (KM20L2 colon) was over 100 µM, the TGI (M19-MEL melanoma) was over 100 µM and the TGI (MOLT-4 leukemia) was over 100 µM. It also gave a TGI (SK-MEL-5 melanoma) of over 100 µM and a TGI (XF 498 CNS) of over 100 µM.
Compound `CCOC(=O)NC(=O)c1cn(C2OC(COC(=O)CCCCCCCCC(=O)OCC3OC(n4cc(C(=O)NC(=O)OCC)c(=O)[nH]c4=O)C(O)C3O)C(O)C2O)c(=O)[nH]c1=O` (centres undefined) has a TGI (DMS 114 small cell lung) of over 100 µM, a TGI (DMS 273 small cell lung) of over 100 µM and a TGI (HCT-116 colon) of over 100 µM. It also gave a TGI (KM20L2 colon) of over 100 µM, a TGI (M19-MEL melanoma) of over 100 µM and a TGI (MOLT-4 leukemia) of over 100 µM. The TGI (SK-MEL-5 melanoma) was over 100 µM and the TGI (XF 498 CNS) was over 100 µM.
Compound `N#CC1(Cc2ccc(N)cc2)c2ccccc2C=CN1C(=O)c1ccccc1` (centres undefined) has a TGI (DMS 114 small cell lung) of over 100 µM, a TGI (DMS 273 small cell lung) of over 100 µM and a TGI (HCT-116 colon) of over 100 µM. For the same compound, the TGI (KM20L2 colon) was over 100 µM, the TGI (M19-MEL melanoma) was over 100 µM and the TGI (MOLT-4 leukemia) was over 100 µM. For the same compound, the TGI (SK-MEL-5 melanoma) was 47.2 µM and the TGI (XF 498 CNS) was over 100 µM.
`N#C/C(=C/c1ccsc1)C(=O)c1ccccc1` showed a TGI (DMS 114 small cell lung) of over 100 µM, a TGI (DMS 273 small cell lung) of over 100 µM and a TGI (HCT-116 colon) of over 100 µM. The TGI (KM20L2 colon) was over 100 µM, the TGI (M19-MEL melanoma) was over 100 µM and the TGI (MOLT-4 leukemia) was over 100 µM. It also gave a TGI (SK-MEL-5 melanoma) of over 100 µM and a TGI (XF 498 CNS) of over 100 µM.
`CN(C)CCC(=O)N1C/C(=C/c2ccccc2)C(=O)/C(=C\c2ccccc2)C1` showed a TGI (DMS 114 small cell lung) of 4.1 µM, a TGI (DMS 273 small cell lung) of 3.26 µM and a TGI (HCT-116 colon) of 1.15 µM. It also gave a TGI (KM20L2 colon) of 2.89 µM, a TGI (M19-MEL melanoma) of 2.83 µM and a TGI (MCF7 breast) of 2.19 µM. It also gave a TGI (MDA-MB-231 breast) of 2.6 µM, a TGI (MOLT-4 leukemia) of 1.46 µM and a TGI (SK-MEL-5 melanoma) of 3.9 µM. The TGI (XF 498 CNS) was 6.69 µM.
`COc1ccc(OC)c(NC(=O)C(=O)C(C(C)=O)c2nc3ccc(Cl)cc3[nH]c2=O)c1` (centres undefined) was tested, and the TGI (DMS 114 small cell lung) was over 50 µM, the TGI (DMS 273 small cell lung) was over 50 µM and the TGI (HCT-116 colon) was over 50 µM. The TGI (KM20L2 colon) was over 50 µM, the TGI (M19-MEL melanoma) was over 50 µM and the TGI (MOLT-4 leukemia) was over 50 µM. The TGI (SK-MEL-5 melanoma) was over 50 µM and the TGI (XF 498 CNS) was over 50 µM.
In the case of `COC(=O)CC(=O)C[P+](c1ccccc1)(c1ccccc1)c1ccccc1`, the TGI (DMS 114 small cell lung) is reported as over 218 µM, the TGI (DMS 273 small cell lung) is reported as over 218 µM and the TGI (HCT-116 colon) is reported as over 218 µM. For the same compound, the TGI (KM20L2 colon) was over 218 µM, the TGI (M19-MEL melanoma) was over 218 µM and the TGI (MOLT-4 leukemia) was over 218 µM. For the same compound, the TGI (SK-MEL-5 melanoma) was over 218 µM and the TGI (XF 498 CNS) was 201 µM.
`O=C(N/N=C/c1ccccc1O)c1cccc([N+](=O)[O-])c1` was tested, and the TGI (DMS 114 small cell lung) was 39.3 µM, the TGI (DMS 273 small cell lung) was over 100 µM and the TGI (HCT-116 colon) was over 100 µM. It also gave a TGI (KM20L2 colon) of over 100 µM, a TGI (M19-MEL melanoma) of 66.2 µM and a TGI (MOLT-4 leukemia) of over 100 µM. It also gave a TGI (SK-MEL-5 melanoma) of over 61.3 µM and a TGI (XF 498 CNS) of over 100 µM.
`Clc1ccc(C2N3CCCCC3[C@@H]3c4[nH]c5ccccc5c4CCN23)cc1` (some centres undefined) gave a TGI (DMS 114 small cell lung) of over 100 µM, a TGI (DMS 273 small cell lung) of over 100 µM and a TGI (HCT-116 colon) of over 100 µM. The TGI (KM20L2 colon) was 96.5 µM, the TGI (M19-MEL melanoma) was 94.7 µM and the TGI (MOLT-4 leukemia) was over 100 µM. The TGI (SK-MEL-5 melanoma) was over 100 µM and the TGI (XF 498 CNS) was over 100 µM.
`CCCCN(CCCC)C(=O)C(=O)C(C#N)c1ccc(C)cc1` (centres undefined) gave a TGI (DMS 114 small cell lung) of over 100 µM, a TGI (DMS 273 small cell lung) of over 100 µM and a TGI (HCT-116 colon) of over 100 µM. It also gave a TGI (KM20L2 colon) of over 100 µM, a TGI (M19-MEL melanoma) of over 100 µM and a TGI (MOLT-4 leukemia) of over 100 µM. It also gave a TGI (SK-MEL-5 melanoma) of over 100 µM and a TGI (XF 498 CNS) of over 100 µM.
Compound `O=C1OCc2c1cc1ccc(O)c(OC3OC(CO)C(O)C(O)C3O)c1c2-c1ccc2c(c1)OCO2` (centres undefined) has a TGI (DMS 114 small cell lung) of over 100 µM, a TGI (DMS 273 small cell lung) of over 100 µM and a GI50 (HCT-116 colon) of 39.7 µM. The TGI (HCT-116 colon) was over 100 µM, the TGI (KM20L2 colon) was over 100 µM and the GI50 (M19-MEL melanoma) was 38.2 µM. For the same compound, the TGI (M19-MEL melanoma) was over 100 µM, the GI50 (MOLT-4 leukemia) was 34.3 µM and the TGI (MOLT-4 leukemia) was over 100 µM. The GI50 (SK-MEL-5 melanoma) was 26.2 µM, the TGI (SK-MEL-5 melanoma) was 74.9 µM and the TGI (XF 498 CNS) was over 100 µM.
For `Cc1nc2c(nc1Cl)nc(Oc1ccc(Cl)cc1)c1ccccc12`, the TGI (DMS 114 small cell lung) was over 100 µM, the TGI (DMS 273 small cell lung) was over 100 µM and the TGI (HCT-116 colon) was over 100 µM. The TGI (KM20L2 colon) was over 100 µM, the TGI (M19-MEL melanoma) was over 100 µM and the TGI (MOLT-4 leukemia) was over 100 µM. For the same compound, the TGI (SK-MEL-5 melanoma) was over 100 µM and the TGI (XF 498 CNS) was over 100 µM.
For `COC(=O)C(=O)C(C(=O)C=C(C)C)C(=O)C(=O)Nc1cc(C(F)(F)F)ccc1Cl` (centres undefined), the TGI (DMS 114 small cell lung) was over 100 µM, the TGI (DMS 273 small cell lung) was over 100 µM and the TGI (HCT-116 colon) was over 100 µM. The TGI (KM20L2 colon) was over 100 µM, the TGI (MOLT-4 leukemia) was over 100 µM and the TGI (SK-MEL-5 melanoma) was over 100 µM. The TGI (XF 498 CNS) was over 100 µM.
With `N#CC(C(=N/O)/C(=N/O)C(C#N)c1ccc(Cl)cc1)c1ccc(Cl)cc1` (centres undefined) the TGI (DMS 114 small cell lung) was over 100 µM, the TGI (DMS 273 small cell lung) was over 100 µM and the TGI (HCT-116 colon) was over 100 µM. For the same compound, the TGI (KM20L2 colon) was over 100 µM, the TGI (M19-MEL melanoma) was over 100 µM and the TGI (XF 498 CNS) was over 100 µM.
Compound `CCCCNC1=C(C(=O)OCC)C(=O)CO1` has a TGI (DMS 114 small cell lung) of over 100 µM, a TGI (DMS 273 small cell lung) of over 100 µM and a TGI (KM20L2 colon) of over 100 µM. The TGI (M19-MEL melanoma) was over 100 µM, the TGI (MOLT-4 leukemia) was over 100 µM and the TGI (SK-MEL-5 melanoma) was over 100 µM. It also gave a TGI (XF 498 CNS) of over 100 µM.
For `Cc1cc2c(cc1C)[n+](=O)c(C(=O)CC(=O)C(=O)Nc1c(C(C)C)cccc1C(C)C)c(C)n2[O-]`, the TGI (DMS 114 small cell lung) was over 100 µM, the TGI (DMS 273 small cell lung) was over 100 µM and the TGI (HCT-116 colon) was over 100 µM. It also gave a TGI (KM20L2 colon) of over 100 µM, a TGI (M19-MEL melanoma) of over 100 µM and a TGI (MOLT-4 leukemia) of over 100 µM. It also gave a TGI (SK-MEL-5 melanoma) of over 100 µM and a TGI (XF 498 CNS) of over 100 µM.
`N=C1CSC2=NC3=C(CCC/C3=C\c3ccccc3)C(c3ccccc3)N12` (centres undefined) gave a TGI (DMS 114 small cell lung) of 8.57 µM, a TGI (DMS 273 small cell lung) of 15.8 µM and a TGI (HCT-116 colon) of 13.2 µM. For the same compound, the TGI (KM20L2 colon) was 16.8 µM, the TGI (M19-MEL melanoma) was 18.3 µM and the TGI (MOLT-4 leukemia) was 8.03 µM. It also gave a TGI (SK-MEL-5 melanoma) of 19.3 µM and a TGI (XF 498 CNS) of 35.1 µM.
For `COC(=O)C[C@H]1CCC2(OCCO2)[C@]1(C)C(=O)OC`, the TGI (DMS 114 small cell lung) was over 100 µM, the TGI (DMS 273 small cell lung) was over 100 µM and the TGI (HCT-116 colon) was over 100 µM. For the same compound, the TGI (M19-MEL melanoma) was over 100 µM, the TGI (MOLT-4 leukemia) was over 100 µM and the TGI (SK-MEL-5 melanoma) was over 100 µM. It also gave a TGI (XF 498 CNS) of over 100 µM.
Compound `COc1ccccc1C1C(C(=O)Nc2ccccc2)=C(C)NC(C)=C1C(=O)Nc1ccccc1` has a TGI (DMS 114 small cell lung) of over 100 µM, a TGI (DMS 273 small cell lung) of over 100 µM and a TGI (HCT-116 colon) of over 100 µM. For the same compound, the TGI (KM20L2 colon) was over 100 µM, the TGI (M19-MEL melanoma) was over 100 µM and the TGI (MOLT-4 leukemia) was 56.8 µM. The TGI (SK-MEL-5 melanoma) was over 100 µM and the TGI (XF 498 CNS) was over 100 µM.
For `COc1ccc2cc1Oc1ccc(cc1)CC1c3cc(c(OC)cc3CCN1C)Oc1c3c(cc4c1C(C2)N(C)CC4)OCO3` (centres undefined), the TGI (DMS 114 small cell lung) was 17.5 µM, the TGI (DMS 273 small cell lung) was 17.2 µM and the TGI (HCT-116 colon) was 26.8 µM. For the same compound, the TGI (KM20L2 colon) was 6.18 µM, the TGI (M19-MEL melanoma) was 12.9 µM and the TGI (MOLT-4 leukemia) was 21.5 µM. For the same compound, the TGI (SK-MEL-5 melanoma) was 25.1 µM and the TGI (XF 498 CNS) was 21.6 µM.
With `CC(=O)Nc1ccccc1Sc1ccccc1` the TGI (DMS 114 small cell lung) was over 100 µM, the TGI (DMS 273 small cell lung) was over 100 µM and the TGI (HCT-116 colon) was over 100 µM. The TGI (KM20L2 colon) was over 100 µM, the TGI (M19-MEL melanoma) was over 100 µM and the TGI (MOLT-4 leukemia) was over 100 µM. The TGI (SK-MEL-5 melanoma) was over 100 µM and the TGI (XF 498 CNS) was over 100 µM.

— PubChem BioAssay (NCI)
